# Results published in ChEMBL document CHEMBL1143875, “Synthesis and structure-activity relationships of thiadiazole-derivatives as potent and orally active peroxisome proliferator-activated receptors alpha/delta dual agonists” (Bioorg Med Chem, 2008).
# pEC50: −log10 of the molar value. The source made the active and inactive calls. The rule behind the calls is not given here.
# Assays:
# [1] = test system: Canis familiaris; test: Effect on alanine aminotransferase level in Beagle dog serum at 0.3 to 3 mg/kg, po/day after 7 days; type: functional, organism-based; details: Canis lupus familiaris
# [2] = AUC in ob/ob C57BL/6J-leptin deficient obese mouse at 3 mg/kg administered as single dose on day 11; type: ADME, organism-based; set-up: dose 3 mg/kg; details: plasma
# [3] = AUC in ob/ob C57BL/6J-leptin deficient obese mouse at 1 mg/kg administered as multiple dose after 11 days; type: ADME, organism-based; set-up: dose 1 mg/kg; details: plasma
# [4] = Cmax in Beagle dog at 0.3 mg/kg administered as multiple dose after 7 days; type: ADME, organism-based, Canis lupus familiaris; set-up: dose 0.3 mg/kg; details: in vivo
# [5] = Activity at retinoic acid receptor
# [6] = Activity at retinoic acid X receptor
# [7] = AUC in Sprague-Dawley rat at 3 mg/kg administered as multiple dose after 8 days; type: ADME, organism-based; set-up: dose 3 mg/kg; details: plasma
# [8] = Cmax in ob/ob C57BL/6J-leptin deficient obese mouse at 3 mg/kg administered as multiple dose after 11 days; type: ADME, organism-based; set-up: dose 3 mg/kg; details: in vivo
# [9] = test system: Mus musculus; test: Reduction in triglyceride level in po dosed hApoA1 transgenic mouse after 7 days; type: functional, organism-based
# [10] = AUC in ob/ob C57BL/6J-leptin deficient obese mouse at 0.3 mg/kg administered as multiple dose after 11 days; type: ADME, organism-based; set-up: dose 0.3 mg/kg; details: plasma
# [11] = test system: Canis familiaris; test: Antihyperlipidemic activity in Beagle dog serum assessed as reduction in triglyceride level at 0.3 to 10 mg/kg, po/day after 7 days; type: functional, organism-based; details: Canis lupus familiaris
# [12] = Cmax in ob/ob C57BL/6J-leptin deficient obese mouse at 3 mg/kg administered as single dose on day 11; type: ADME, organism-based; set-up: dose 3 mg/kg; details: in vivo
# [13] = AUC in Sprague-Dawley rat at 1 mg/kg administered as multiple dose after 8 days; type: ADME, organism-based; set-up: dose 1 mg/kg; details: plasma
# [14] = AUC in Beagle dog at 10 mg/kg administered as single dose on day 7; type: ADME, organism-based, Canis lupus familiaris; set-up: dose 10 mg/kg; details: plasma
# [15] = target: T1, Peroxisome proliferator-activated receptor delta (Homo sapiens, UniProt Q03181); test: Agonist activity at human PPARdelta-Gal4 in HEK293 cells by luciferase reporter assay; type: functional, cell-based
# T1 sequence (Q03181 whole entry): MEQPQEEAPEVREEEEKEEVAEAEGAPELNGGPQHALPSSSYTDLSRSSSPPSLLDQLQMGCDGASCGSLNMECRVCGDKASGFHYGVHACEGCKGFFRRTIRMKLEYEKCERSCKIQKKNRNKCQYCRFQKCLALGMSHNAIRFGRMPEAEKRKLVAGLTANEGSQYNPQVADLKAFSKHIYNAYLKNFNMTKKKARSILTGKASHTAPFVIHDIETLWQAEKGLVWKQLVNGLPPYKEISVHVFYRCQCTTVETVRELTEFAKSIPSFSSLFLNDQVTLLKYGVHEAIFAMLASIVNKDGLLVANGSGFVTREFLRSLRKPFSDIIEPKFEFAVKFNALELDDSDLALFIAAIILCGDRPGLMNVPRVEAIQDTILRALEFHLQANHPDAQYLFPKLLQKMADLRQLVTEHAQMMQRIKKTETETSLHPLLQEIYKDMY
# [16] = AUC in Beagle dog at 0.3 mg/kg administered as multiple dose after 7 days; type: ADME, organism-based, Canis lupus familiaris; set-up: dose 0.3 mg/kg; details: plasma
# [17] = Induction of ABCA1 gene expression in human skeletal muscle cells at 1000 nM by RT-PCR; type: functional
# [18] = Induction of ABCA1 gene expression in human skeletal muscle cells at 1 nM by RT-PCR; type: functional
# [19] = test system: Rattus norvegicus; test: Increase in HDL cholesterol level in po dosed hypercholesterolemic Sprague-Dawley rat serum after 8 days; type: functional
# [20] = AUC in Sprague-Dawley rat at 0.3 mg/kg administered as multiple dose after 8 days; type: ADME, organism-based; set-up: dose 0.3 mg/kg; details: plasma
# [21] = test system: Mus musculus; test: Increase in HDL cholesterol level in po dosed hApoA1 transgenic mouse after 7 days; type: functional, organism-based
# [22] = Cmax in Beagle dog at 10 mg/kg administered as multiple dose after 7 days; type: ADME, organism-based, Canis lupus familiaris; set-up: dose 10 mg/kg; details: in vivo
# [23] = Half life in Sprague-Dawley rat at 0.1 mg/kg administered as multiple dose after 8 days; type: ADME, organism-based; set-up: dose 0.1 mg/kg; details: in vivo
# [24] = Cmax in Beagle dog at 1 mg/kg administered as multiple dose after 7 days; type: ADME, organism-based, Canis lupus familiaris; set-up: dose 1 mg/kg; details: in vivo
# [25] = Cmax in Beagle dog at 10 mg/kg administered as single dose on day 7; type: ADME, organism-based, Canis lupus familiaris; set-up: dose 10 mg/kg; details: in vivo
# [26] = Half life in Beagle dog at 10 mg/kg administered as single dose on day 7; type: ADME, organism-based, Canis lupus familiaris; set-up: dose 10 mg/kg; details: in vivo
# [27] = target: T2, Bile acid receptor (Homo sapiens) (UniProt Q96RI1); test: Activity at farnesoid X receptor
# T2 sequence (whole entry): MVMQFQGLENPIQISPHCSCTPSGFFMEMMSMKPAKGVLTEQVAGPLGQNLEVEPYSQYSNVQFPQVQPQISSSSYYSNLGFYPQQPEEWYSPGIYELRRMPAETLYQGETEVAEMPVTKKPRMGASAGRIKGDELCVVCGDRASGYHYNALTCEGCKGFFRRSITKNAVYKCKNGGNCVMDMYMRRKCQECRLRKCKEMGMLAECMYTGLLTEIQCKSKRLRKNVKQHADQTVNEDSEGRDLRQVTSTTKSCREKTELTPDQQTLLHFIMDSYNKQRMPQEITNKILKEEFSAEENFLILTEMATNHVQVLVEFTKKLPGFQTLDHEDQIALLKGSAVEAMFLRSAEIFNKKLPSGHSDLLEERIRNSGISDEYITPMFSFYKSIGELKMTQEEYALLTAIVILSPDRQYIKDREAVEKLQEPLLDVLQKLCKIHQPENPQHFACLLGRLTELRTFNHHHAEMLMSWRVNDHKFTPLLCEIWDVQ
# [28] = AUC in Beagle dog at 1 mg/kg administered as multiple dose after 7 days; type: ADME, organism-based, Canis lupus familiaris; set-up: dose 1 mg/kg; details: plasma
# [29] = Cmax in ob/ob C57BL/6J-leptin deficient obese mouse at 0.1 mg/kg administered as multiple dose after 11 days; type: ADME, organism-based; set-up: dose 0.1 mg/kg; details: in vivo
# [30] = AUC in Sprague-Dawley rat at 3 mg/kg administered as single dose on day 8; type: ADME, organism-based; set-up: dose 3 mg/kg; details: plasma
# [31] = Cmax in Sprague-Dawley rat at 3 mg/kg administered as single dose on day 8; type: ADME, organism-based; set-up: dose 3 mg/kg; details: in vivo
# [32] = target: T3, Peroxisome proliferator-activated receptor alpha (Homo sapiens, UniProt Q07869); test: Agonist activity at human PPARalpha-Gal4 in HEK293 cells by luciferase reporter assay; type: functional, cell-based
# T3 sequence (Q07869 whole entry): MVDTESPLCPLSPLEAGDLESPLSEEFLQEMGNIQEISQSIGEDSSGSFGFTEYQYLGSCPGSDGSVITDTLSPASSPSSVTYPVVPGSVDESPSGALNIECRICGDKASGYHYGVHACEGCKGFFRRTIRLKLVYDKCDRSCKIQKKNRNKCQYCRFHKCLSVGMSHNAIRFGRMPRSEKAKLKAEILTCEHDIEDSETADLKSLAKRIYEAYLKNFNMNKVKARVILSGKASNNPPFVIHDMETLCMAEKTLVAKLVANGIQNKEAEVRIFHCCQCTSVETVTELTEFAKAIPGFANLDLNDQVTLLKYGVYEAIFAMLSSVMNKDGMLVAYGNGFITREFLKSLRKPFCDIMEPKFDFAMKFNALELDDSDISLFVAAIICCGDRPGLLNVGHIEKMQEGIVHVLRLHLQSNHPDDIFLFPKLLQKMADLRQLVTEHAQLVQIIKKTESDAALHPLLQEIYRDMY
structure (smiles),measurement,setting,value
Cc1cc(SCc2nc(-c3ccc(Cl)c(Cl)c3)ns2)ccc1OC(C)(C)C(=O)O,Activity,[1],inactive
same,AUC,[2],115000 ng·h/mL
same,AUC at 264 h,[3],47600 ng·h/mL
same,Cmax,[4],398 ng/mL
same,Activity,[5],inactive
same,Activity,[6],inactive
same,AUC at 192 h,[7],27100 ng·h/mL
same,Cmax,[8],26300 ng/mL
same,Activity,[9],Active
same,AUC at 264 h,[10],10600 ng·h/mL
same,Activity,[11],Dose-dependent effect
same,Cmax,[12],19300 ng/mL
same,AUC at 192 h,[13],13900 ng·h/mL
same,AUC,[14],57200 ng·h/mL
same,pEC50,[15],8.10
same,AUC at 168 h,[16],2650 ng·h/mL
same,Fold change,[17],4.8
same,Fold change,[18],1.5
same,Activity,[19],45 mg/dL
same,AUC at 192 h,[20],2400 ng·h/mL
same,Activity,[21],Dose-dependent effect
same,Cmax,[22],10100 ng/mL
same,half-life,[23],5.5 h
same,Cmax,[24],1530 ng/mL
same,Cmax,[25],10100 ng/mL
same,half-life,[26],5.8 h
same,Activity,[27],inactive
same,AUC at 168 h,[28],6500 ng·h/mL
same,Cmax,[29],480 ng/mL
same,AUC,[30],24200 ng·h/mL
same,Cmax,[31],2520 ng/mL
same,pEC50,[32],7.00
